Results: patent US12018059B2, “Human amylin analog polypeptides and methods of use” (Intarcia Therapeutics, Inc., priority 2018, dated 2024)
≈ marks a conversion by molar mass, not a printed value. Like-named read-outs stand apart in the source and are kept apart here. Each block holds one compound with its values, some of them ahead of it. Starred links: 1 amine or outer side, 2 acyl side, 3 side chain; linkers in the order of their positions; H or OH if unused. Positions of bridges follow the written chain, without caps; N, C: chain ends. Non-standard residues stand in square brackets, D forms with d. Residues, ends and D or L forms follow the SMILES beside them. Groups on a side chain read outwards from the residue. *: point of attachment. C20 diacid = O=C(O)CCCCCCCCCCCCCCCCCCC(=O)*; C18 diacid = O=C(O)CCCCCCCCCCCCCCCCC(=O)*; γGlu = O=C(O)[C@H](CCC(=O)[*:2])N[*:1]; Stearoyl = CCCCCCCCCCCCCCCCCC(=O)*; Palmitoyl = CCCCCCCCCCCCCCCC(=O)*

How the values were obtained:
[1] = Acute food intake inhibition after SC bolus injection (BioDAQ); conditions: Long Evans rats on 45% high fat diet
[2] = in vivo; set-up: species or system Sprague-Dawley rats; conditions: rat, iv, 0.033 mg/kg
Outline: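 Peptide plasma levels measured by UPLC-MS/MS (C18, product-ion monitoring) after protein precipitation or WCX SPE, calibrated in K2EDTA/protease-inhibitor rat plasma. Dosing in non-fasted male Sprague-Dawley rats (n=3): 0.033 mg/kg over 1 h by IV or SC infusion, or 0.3 mg/kg SC bolus; sampling up to 48 h.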

[3] = Solubility of amylin analog polypeptides (visual inspection, room temperature); assay type: physicochemical
Description: The analog polypeptides described herein were tested for solubility in saline 20% DMSO in water (i.e., bioassay buffer) or in aqueous (DI water) at room temperature. Samples were visually inspected for clarity of the sample, any appearance of turbidity or haziness.

[4] = 13-day dose-response body weight loss, continuous SC infusion by osmotic mini-pump; conditions: 13 days, LE DIO rats; for DIO Dose Response 13 d weight loss, ΔΔ % weight loss: from baseline and vehicle control
[5] = 27-day weight loss in combination with exenatide; conditions: LE DIO rats
[6] = Stability of amylin analog polypeptides in solution at 37° C. (purity by LC/MS and HPLC); assay type: physicochemical; conditions: 1 mg/ml, trifluoro acetate salt
Description: Several amylin analog polypeptides described herein were tested, as the trifluoro acetate salt, for stability in DMSO (i.e., organosulfur solvent) or in aqueous (i.e., in DI water) at 1 mg/ml solution. These analog polypeptides were incubated at 37° C., and samples were withdrawn at various time intervals and analyzed by LC/MS and HPLC for determination of purity and mass of the parent peptide and extent of any degradation products. The purity results of these analyses are shown in Tables 6A & 6B and are considered indicative of stability.

[7] = TFA salt, DI H2O, room temperature, read-out: Solubility

Vd ([2]; male, Sprague-Dawley): 0.398 L/kg
clearance ([2]; male, Sprague-Dawley): 0.705 mL/min/kg
half-life ([2]; male, Sprague-Dawley): 7.53 h
solubility ([3]; Solubility): 63 mg/mL (≈ 13.6 mM)
SMILES: CCCCCCCCCCCCCCCCCC(=O)N[C@@H](CCC(=O)N[C@@H](CCC(=O)N[C@@H](CCC(=O)NCCCC[C@@H](NC(=O)[C@H](CCC(=O)O)NC(=O)[C@H](CC(N)=O)NC(=O)[C@H](C)NC(=O)[C@H](CC(C)C)NC(=O)[C@H](CCCNC(=N)N)NC(=O)[C@H](CCC(N)=O)NC(=O)[C@@H](NC(=O)[C@H](C)NC(=O)[C@@H]1CSSC[C@H](NC(=O)[C@@H](N)CO)C(=O)N[C@@H](CC(N)=O)C(=O)N[C@@H]([C@@H](C)O)C(=O)N[C@@H](CO)C(=O)N[C@@H]([C@@H](C)O)C(=O)N1)[C@@H](C)O)C(=O)N[C@@H](Cc1c[nH]cn1)C(=O)N[C@@H](CCCCN)C(=O)N[C@@H](CO)C(=O)N[C@@H](CO)C(=O)N[C@@H](CC(N)=O)C(=O)N[C@@H](CC(N)=O)C(=O)N[C@@H](Cc1ccccc1)C(=O)NCC(=O)N1CCC[C@H]1C(=O)N[C@H](C(=O)N[C@@H](CC(C)C)C(=O)N1CCC[C@H]1C(=O)N1CCC[C@H]1C(=O)N[C@H](C(=O)N[C@@H](CCCCN)C(=O)N[C@H](C(=O)NCC(=O)N[C@@H](CO)C(=O)N[C@@H](CCC(=O)O)C(=O)N[C@H](C(=O)N[C@@H](Cc1ccc(O)cc1)C(N)=O)[C@@H](C)O)C(C)C)[C@@H](C)O)[C@@H](C)CC)C(=O)O)C(=O)O)C(=O)O [Compound A13] (H-SCNTSTCATQRLANE[dK]([γGlu-γGlu-γGlu-Stearoyl])HKSSNNFGPILPPTKVGSETY-NH2; disulfide 2-7; N-terminus assumed)
Acute Food Intake % Inhibition vs vehicle ([1]; 0-24 hr after acute SC dosing): 67%
Acute Food Intake % Inhibition vs vehicle ([1]; 25-48 hr after acute SC dosing): 37%
Acute Food Intake % Inhibition vs vehicle ([1]; 49-72 hr after acute SC dosing): 6%
DIO Dose Response 13 d weight loss, ED50 [4]: 0.055 mg/kg
DIO Dose Response 13 d weight loss, ΔΔ % weight loss [4]: 5%
DIO Combination + Exenatide 27 d weight loss, ΔΔ % weight loss ([5]; dose 3 mcg/kg + Exenatide 10 mcg/kg): 9%
DIO Combination + Exenatide 27 d weight loss, ΔΔ % weight loss ([5]; dose 10 mcg/kg + Exenatide 10 mcg/kg): 12%
DIO Combination + Exenatide 27 d weight loss, ΔΔ % weight loss ([5]; dose 30 mcg/kg + Exenatide 10 mcg/kg): 12%

Vd [2]: 0.182 L/kg
clearance [2]: 0.0641 mL/min/kg
half-life [2]: 37.2 h
solubility ([3]; Acetate salt, 20% DMSO in DI H2O, room temperature, read-out: Solubility): 123 mg/mL
solubility ([3]; Acetate salt, DI H2O, room temperature, read-out: Solubility): 104 mg/mL
solubility ([3]; Acetate salt, Saline, room temperature, read-out: Solubility): 88.3 mg/mL
solubility ([3]; TFA salt, 20% DMSO in DI H2O, room temperature, read-out: Solubility): 56 mg/mL
solubility [3, 7]: 103 mg/mL
purity of parent peptide (indicative of stability) ([6]; 20% DMSO in DI Water, Day 0 room temp): 98.8%
purity of parent peptide (indicative of stability) ([6]; 20% DMSO in DI Water, Day 5 37° C.): 98.1%
purity of parent peptide (indicative of stability) ([6]; 20% DMSO in DI Water, Day 8 37° C.): 98.6%
purity of parent peptide (indicative of stability) ([6]; 20% DMSO in DI Water, Day 12 37° C.): 97.9%
purity of parent peptide (indicative of stability) ([6]; 20% DMSO in DI Water, Day 19 37° C.): 97.2%
purity of parent peptide (indicative of stability) ([6]; 20% DMSO in DI Water, Day 25 37° C.): 97.3%
purity of parent peptide (indicative of stability) ([6]; 20% DMSO in DI Water, Day 32 37° C.): 97.2%
purity of parent peptide (indicative of stability) ([6]; DI Water, Day 0 room temp): 100%
purity of parent peptide (indicative of stability) ([6]; DI Water, Day 5 37° C.): 99.1%
purity of parent peptide (indicative of stability) ([6]; DI Water, Day 8 37° C.): 98.1%
purity of parent peptide (indicative of stability) ([6]; DI Water, Day 12 37° C.): 98.1%
purity of parent peptide (indicative of stability) ([6]; DI Water, Day 19 37° C.): 97.4%
purity of parent peptide (indicative of stability) ([6]; DI Water, Day 25 37° C.): 97.3%
purity of parent peptide (indicative of stability) ([6]; DI Water, Day 32 37° C.): 88.5%
SMILES: CC[C@H](C)[C@H](NC(=O)[C@@H]1CCCN1C(=O)CNC(=O)[C@H](Cc1ccccc1)NC(=O)[C@H](CC(N)=O)NC(=O)[C@H](CC(N)=O)NC(=O)[C@H](CO)NC(=O)[C@H](CO)NC(=O)[C@H](CCCCN)NC(=O)[C@H](Cc1c[nH]cn1)NC(=O)[C@H](CC(C)C)NC(=O)[C@H](CCC(=O)O)NC(=O)[C@H](CC(N)=O)NC(=O)[C@H](C)NC(=O)[C@H](CC(C)C)NC(=O)[C@H](CCCNC(=N)N)NC(=O)[C@H](CCC(N)=O)NC(=O)[C@@H](NC(=O)[C@H](C)NC(=O)[C@@H]1CSSC[C@H](NC(=O)[C@@H](N)CCCCNC(=O)CC[C@H](NC(=O)CC[C@H](NC(=O)CCCCCCCCCCCCCCCCCCC(=O)O)C(=O)O)C(=O)O)C(=O)N[C@@H](CC(N)=O)C(=O)N[C@@H]([C@@H](C)O)C(=O)N[C@@H](CO)C(=O)N[C@@H]([C@@H](C)O)C(=O)N1)[C@@H](C)O)C(=O)N[C@@H](CC(C)C)C(=O)N1CCC[C@H]1C(=O)N1CCC[C@H]1C(=O)N[C@H](C(=O)N[C@@H](CCCCN)C(=O)N[C@H](C(=O)NCC(=O)N[C@@H](CO)C(=O)N[C@@H](CCC(=O)O)C(=O)N[C@H](C(=O)N[C@@H](Cc1ccc(O)cc1)C(N)=O)[C@@H](C)O)C(C)C)[C@@H](C)O [Compound A64] (H-K([γGlu-γGlu-C20 diacid])CNTSTCATQRLANELHKSSNNFGPILPPTKVGSETY-NH2; disulfide 2-7; N-terminus assumed)

Vd ([2]; male, Sprague-Dawley): 0.175 L/kg
clearance ([2]; male, Sprague-Dawley): 0.101 mL/min/kg
half-life ([2]; male, Sprague-Dawley): 22.6 h
solubility ([3]; deionised water, TFA salt, DI H2O, room temperature, read-out: Solubility): 138 mg/mL
SMILES: CC[C@H](C)[C@H](NC(=O)[C@@H]1CCCN1C(=O)CNC(=O)[C@H](Cc1ccccc1)NC(=O)[C@H](CC(N)=O)NC(=O)[C@H](CC(N)=O)NC(=O)[C@H](CO)NC(=O)[C@H](CO)NC(=O)[C@H](CCCCN)NC(=O)[C@H](Cc1c[nH]cn1)NC(=O)[C@H](CC(C)C)NC(=O)[C@H](CCC(=O)O)NC(=O)[C@H](CC(N)=O)NC(=O)[C@H](C)NC(=O)[C@H](CC(C)C)NC(=O)[C@H](CCCNC(=N)N)NC(=O)[C@H](CCC(N)=O)NC(=O)[C@@H](NC(=O)[C@H](C)NC(=O)[C@@H]1CSSC[C@H](NC(=O)[C@@H](N)CCCCNC(=O)CC[C@H](NC(=O)CC[C@H](NC(=O)CCCCCCCCCCCCCCCCC(=O)O)C(=O)O)C(=O)O)C(=O)N[C@@H](CC(N)=O)C(=O)N[C@@H]([C@@H](C)O)C(=O)N[C@@H](CO)C(=O)N[C@@H]([C@@H](C)O)C(=O)N1)[C@@H](C)O)C(=O)N[C@@H](CC(C)C)C(=O)N1CCC[C@H]1C(=O)N1CCC[C@H]1C(=O)N[C@H](C(=O)N[C@@H](CCCCN)C(=O)N[C@H](C(=O)NCC(=O)N[C@@H](CO)C(=O)N[C@@H](CCC(=O)O)C(=O)N[C@H](C(=O)N[C@@H](Cc1ccc(O)cc1)C(N)=O)[C@@H](C)O)C(C)C)[C@@H](C)O [Compound A65] (H-K([γGlu-γGlu-C18 diacid])CNTSTCATQRLANELHKSSNNFGPILPPTKVGSETY-NH2; disulfide 2-7; N-terminus assumed)
Acute Food Intake % Inhibition vs vehicle ([1]; 0-24 hr after acute SC dosing): 50%
Acute Food Intake % Inhibition vs vehicle ([1]; 25-48 hr after acute SC dosing): 25%
Acute Food Intake % Inhibition vs vehicle ([1]; 49-72 hr after acute SC dosing): 14%
DIO Dose Response 13 d weight loss, ED50 [4]: 0.07 mg/kg
DIO Dose Response 13 d weight loss, ΔΔ % weight loss [4]: 3%
DIO Combination + Exenatide 27 d weight loss, ΔΔ % weight loss ([5]; dose 100 mcg/kg + Exenatide 10 mcg/kg): 8%
DIO Combination + Exenatide 27 d weight loss, ΔΔ % weight loss ([5]; dose 300 mcg/kg + Exenatide 10 mcg/kg): 9%
DIO Combination + Exenatide 27 d weight loss, ΔΔ % weight loss ([5]; dose 600 mcg/kg + Exenatide 10 mcg/kg): 12%

Vd [2]: 0.198 L/kg
clearance [2]: 0.357 mL/min/kg
half-life [2]: 7.14 h
solubility [3, 7]: 70.6 mg/mL
SMILES: CCCCCCCCCCCCCCCC(=O)N[C@@H](CCC(=O)N[C@@H](CCC(=O)N[C@@H](CCC(=O)NCCCC[C@@H](NC(=O)[C@H](CCC(=O)O)NC(=O)[C@H](CC(N)=O)NC(=O)[C@H](C)NC(=O)[C@H](CC(C)C)NC(=O)[C@H](CCCNC(=N)N)NC(=O)[C@H](CCC(N)=O)NC(=O)[C@@H](NC(=O)[C@H](C)NC(=O)[C@@H]1CSSC[C@H](NC(=O)[C@@H](N)CO)C(=O)N[C@@H](CC(N)=O)C(=O)N[C@@H]([C@@H](C)O)C(=O)N[C@@H](CO)C(=O)N[C@@H]([C@@H](C)O)C(=O)N1)[C@@H](C)O)C(=O)N[C@@H](Cc1c[nH]cn1)C(=O)N[C@@H](CCCCN)C(=O)N[C@@H](CO)C(=O)N[C@@H](CO)C(=O)N[C@@H](CC(N)=O)C(=O)N[C@@H](CC(N)=O)C(=O)N[C@@H](Cc1ccccc1)C(=O)NCC(=O)N1CCC[C@H]1C(=O)N[C@H](C(=O)N[C@@H](CC(C)C)C(=O)N1CCC[C@H]1C(=O)N1CCC[C@H]1C(=O)N[C@H](C(=O)N[C@@H](CCCCN)C(=O)N[C@H](C(=O)NCC(=O)N[C@@H](CO)C(=O)N[C@@H](CC(N)=O)C(=O)N[C@H](C(=O)N[C@@H](Cc1ccc(O)cc1)C(N)=O)[C@@H](C)O)C(C)C)[C@@H](C)O)[C@@H](C)CC)C(=O)O)C(=O)O)C(=O)O [Compound A67] (H-SCNTSTCATQRLANE[dK]([γGlu-γGlu-γGlu-Palmitoyl])HKSSNNFGPILPPTKVGSNTY-NH2; disulfide 2-7)
